For twelve compounds, IC50 results are on record in US9603889B2, “IAP antagonists” (BRISTOL-MYERS SQUIBB COMPANY, priority 2012, dated 2017).

SMILES strings stand for the structures. pIC50: −log10 of the molar value.

For orientation: pIC50 means the negative decadic logarithm of the IC50, by convention in mol/L.

XIAP BIR3 (N-His-Tb-BIR3(241-356, XIAP)), sequence (P98170 241-356): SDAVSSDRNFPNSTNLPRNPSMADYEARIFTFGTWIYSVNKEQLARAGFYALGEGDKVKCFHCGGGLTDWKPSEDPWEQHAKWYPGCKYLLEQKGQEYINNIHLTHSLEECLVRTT

The first experiment has as its target XIAP BIR3 (N-His-Tb-BIR3(241-356, XIAP)) (Homo sapiens (Human), UniProt P98170). Format: binding. To be noted: 130 nM N-His-Tb-BIR3(241-356, XIAP), 1.4 nM fluoresceinated modified SMAC peptide, 60 minutes room temperature; read-out: XIAP BIR3 FPA IC50.
Consider `CN[C@@H](C)C(=O)N[C@H](C(=O)N1C[C@@H](NC(=O)n2ccc3cc(CN(C(=O)[C@@H]4Cc5ccccc5CN4C(=O)[C@@H](NC(=O)[C@H](C)NC)C(C)(C)C)C(COC)c4ccccc4)ccc32)C[C@H]1C(=O)N[C@@H]1CCCc2ccccc21)C(C)(C)C` (stereo in doubt) [Example 9, (S)-2-((S)-3,3-Dimethyl-2-((S)-2-(methylamino)propanamido)butanoyl)-N-((1-(((3S,5S)-1-((S)-3,3-dimethyl-2-((S)-2-(methylamino)propanamido)butanoyl)-5-(((R)-1,2,3,4-tetrahydronaphthalen-1-yl)carbamoyl)pyrrolidin-3-yl)carbamoyl)-1H-indol-5-yl)methyl)-N-((S)-2-methoxy-1-phenylethyl)-1,2,3,4-tetrahydroisoquinoline-3-carboxamide], for which the pIC50 was 6.89.

Consider `CNC(C)C(=O)N[C@H](C(=O)N1C[C@@H](NC(=O)c2ccc(C(=O)N(C[C@@H]3Cc4ccccc4CN3C(=O)[C@@H](NC(=O)[C@H](C)NC)C(C)(C)C)[C@H](C)Cc3ccccc3F)cc2)C[C@H]1C(=O)N[C@@H]1CCCc2ccccc21)C(C)(C)C` (stereo in doubt) [Example 17, N^1-(((S)-2-((S)-3,3-dimethyl-2-((S)-2-(methylamino)propanamido)butanoyl)-1,2,3,4-tetra-hydroisoquinolin-3-yl)methyl)-N^4-((3S,5S)-1-((S)-3,3-dimethyl-2-((S)-2-(methyl-amino)propanamido)butanoyl)-5-(((R)-1,2,3,4-tetrahydro-naphthalen-1-yl)carbamoyl)pyrrolidin-3-yl)-N^1-((R)-1-(2-fluorophenyl)propan-2-yl) terephthalamide], for which the pIC50 was 7.00.

Consider `CN[C@@H](C)C(=O)N[C@H](C(=O)N1CC(NC(=O)c2cccc(CN(C(=O)[C@@H]3Cc4ccccc4CN3C(=O)[C@@H](NC(=O)[C@H](C)NC)C(C)(C)C)C(COC)c3ccccc3)c2)C[C@H]1C(=O)NC1CCCc2ccccc21)C(C)(C)C` (stereo in doubt) [Example 39, (S)-2-((S)-3,3-Dimethyl-2-((S)-2-(methylamino)propanamido)butanoyl)-N-(3-(((3S,5S)-1-((S)-3,3-dimethyl-2-((S)-2-(methylamino)propanamido)butanoyl)-5-(((R)-1,2,3,4-tetrahydronaphthalen-1-yl)carbamoyl)pyrrolidin-3-yl)carbamoyl)benzyl)-N-((S)-2-methoxy-1-phenylethyl)-1,2,3,4-tetrahydroisoquinoline-3-carboxamide], for which the pIC50 is 7.10.

Turning to `CN[C@@H](C)C(=O)N[C@H](C(=O)N1C[C@@H](NC(=O)c2ccc(CN(CCc3ccccc3)C(=O)[C@@H]3Cc4ccccc4CN3C(=O)[C@@H](NC(=O)[C@H](C)NC)C(C)(C)C)cc2)C[C@H]1C(=O)N[C@@H]1CCCc2ccccc21)C(C)(C)C` [Example 2, (S)-2-((S)-3,3-Dimethyl-2-((S)-2-(methylamino)propanamido)butanoyl)-N-(4-(((3S,5S)-1-((S)-3,3-dimethyl-2-((S)-2-(methylamino)propanamido)butanoyl)-5-(((R)-1,2,3,4-tetrahydronaphthalen-1-yl)carbamoyl)pyrrolidin-3-yl)carbamoyl)benzyl)-N-phenethyl-1,2,3,4-tetrahydroisoquinoline-3-carboxamide], the pIC50 was 7.52.

For `CN[C@@H](C)C(=O)N[C@H](C(=O)N1C[C@@H](NC(=O)c2ccc(CN(C(=O)[C@@H]3Cc4ccccc4CN3C(=O)[C@@H](NC(=O)[C@H](C)NC)C(C)(C)C)[C@H](C)c3cccc(OC)c3)cc2)C[C@H]1C(=O)N[C@@H]1CCCc2ccccc21)C(C)(C)C` [Example 3, (S)-2-((S)-3,3-Dimethyl-2-((S)-2-(methylamino)propanamido)butanoyl)-N-(4-(((3S,5S)-1-((S)-3,3-dimethyl-2-((S)-2-(methylamino)propanamido)butanoyl)-5-(((R)-1,2,3,4-tetrahydronaphthalen-1-yl)carbamoyl)pyrrolidin-3-yl)carbamoyl)benzyl)-N-((R)-1-(3-methoxyphenyl)ethyl)-1,2,3,4-tetrahydroisoquinoline-3-carboxamide], the pIC50 is 7.22.

Take `CN[C@@H](C)C(=O)N[C@H](C(=O)N1C[C@@H](NC(=O)c2ccc(CN(C(=O)[C@@H]3Cc4ccccc4CN3C(=O)[C@@H](NC(=O)[C@H](C)NC)C(C)(C)C)[C@H](C)c3ccc(F)cc3)cc2)C[C@H]1C(=O)N[C@@H]1CCCc2ccccc21)C(C)(C)C` [Example 4, (S)-2-((S)-3,3-Dimethyl-2-((S)-2-(methylamino)propanamido)butanoyl)-N-(4-(((3S,5S)-1-((S)-3,3-dimethyl-2-((S)-2-(methylamino)propanamido)butanoyl)-5-(((R)-1,2,3,4-tetrahydronaphthalen-1-yl)carbamoyl)pyrrolidin-3-yl)carbamoyl)benzyl)-N-((R)-1-(4-fluorophenyl)ethyl)-1,2,3,4-tetrahydroisoquinoline-3-carboxamide]: the pIC50 is 7.00.

Regarding `CN[C@@H](C)C(=O)N[C@H](C(=O)N1C[C@@H](NC(=O)c2ccc(CN(C(=O)[C@@H]3Cc4ccccc4CN3C(=O)[C@@H](NC(=O)[C@H](C)NC)C(C)(C)C)[C@H](C)c3ccccc3Cl)cc2)C[C@H]1C(=O)N[C@@H]1CCCc2ccccc21)C(C)(C)C` [Example 5, (S)-N-((R)-1-(2-Chlorophenyl)ethyl)-2-((S)-3,3-dimethyl-2-((S)-2-(methylamino)propanamido)butanoyl)-N-(4-(((3S,5S)-1-((S)-3,3-dimethyl-2-((S)-2-(methylamino)propanamido)butanoyl)-5-(((R)-1,2,3,4-tetrahydronaphthalen-1-yl)carbamoyl)pyrrolidin-3-yl)carbamoyl)benzyl)-1,2,3,4-tetrahydroisoquinoline-3-carboxamide], the pIC50 was 6.66.

Consider `CCC[C@H](c1ccccc1)N(Cc1ccc(C(=O)N[C@H]2C[C@@H](C(=O)N[C@@H]3CCCc4ccccc43)N(C(=O)[C@@H](NC(=O)[C@H](C)NC)C(C)(C)C)C2)cc1)C(=O)[C@@H]1Cc2ccccc2CN1C(=O)[C@@H](NC(=O)[C@H](C)NC)C(C)(C)C` [Example 7, (S)-2-((S)-3,3-Dimethyl-2-((S)-2-(methylamino)propanamido)butanoyl)-N-(4-(((3S,5S)-1-((S)-3,3-dimethyl-2-((S)-2-(methylamino)propanamido)butanoyl)-5-(((R)-1,2,3,4-tetrahydronaphthalen-1-yl)carbamoyl)pyrrolidin-3-yl)carbamoyl)benzyl)-N-((R)-1-phenylbutyl)-1,2,3,4-tetrahydroisoquinoline-3-carboxamide], for which the pIC50 is 6.72.

As for `CN[C@@H](C)C(=O)N[C@H](C(=O)N1Cc2ccccc2C[C@H]1CN(CCc1ccccc1)C(=O)c1ccc(C(=O)N[C@H]2C[C@@H](C(=O)N[C@@H]3CCCc4ccccc43)N(C(=O)[C@@H](NC(=O)[C@H](C)NC)C(C)(C)C)C2)cc1)C(C)(C)C` [Example 10, N^1-(((S)-2-((S)-3,3-Dimethyl-2-((S)-2-(methylamino)propanamido)butanoyl)-1,2,3,4-tetrahydroisoquinolin-3-yl)methyl)-N^4-((3S,5S)-1-((S)-3,3-dimethyl-2-((S)-2-(methylamino)propanamido)butanoyl)-5-(((R)-1,2,3,4-tetrahydronaphthalen-1-yl)carbamoyl)pyrrolidin-3-yl)-N^1-phenethylterephthalamide], the pIC50 is 7.22.

For the compound `CN[C@@H](C)C(=O)N[C@H](C(=O)N1C[C@@H](NC(=O)c2ccc(CN(Cc3cccc(Cl)c3Cl)C(=O)[C@@H]3Cc4ccccc4CN3C(=O)[C@@H](NC(=O)[C@H](C)NC)C(C)(C)C)cc2)C[C@H]1C(=O)N[C@@H]1CCCc2ccccc21)C(C)(C)C` [Example 11, (S)-N-(2,3-Dichlorobenzyl)-2-((S)-3,3-dimethyl-2-((S)-2-(methylamino)propanamido)butanoyl)-N-(4-(((3S,5S)-1-((S)-3,3-dimethyl-2-((S)-2-(methylamino)propanamido)butanoyl)-5-(((R)-1,2,3,4-tetrahydro-naphthalen-1-yl)carbamoyl)pyrrolidin-3-yl)carbamoyl)benzyl)-1,2,3,4-tetra-hydroisoquinoline-3-carboxamide], the pIC50 is 7.15.

For `CN[C@@H](C)C(=O)N[C@H](C(=O)N1C[C@@H](NC(=O)c2ccc(CN(CCc3ccc4ccccc4c3)C(=O)[C@@H]3Cc4ccccc4CN3C(=O)[C@@H](NC(=O)[C@H](C)NC)C(C)(C)C)cc2)C[C@H]1C(=O)N[C@@H]1CCCc2ccccc21)C(C)(C)C` [Example 12, (S)-2-((S)-3,3-Dimethyl-2-((S)-2-(methylamino)propanamido)butanoyl)-N-(4-(((3S,5S)-1-((S)-3,3-dimethyl-2-((S)-2-(methyl-amino)propanamido)butanoyl)-5-(((R)-1,2,3,4-tetrahydro-naphthalen-1-yl)carbamoyl)pyrrolidin-3-yl)carbamoyl)benzyl)-N-(2-(naphthalen-2-yl)ethyl)-1,2,3,4-tetrahydro-isoquinoline-3-carboxamide], the pIC50 was 7.05.

Staying with this experiment, now noted: read-out: XIAP BIR3 FPA IC50.
With `CN[C@@H](C)C(=O)N[C@H](C(=O)N1CC(NC(=O)CN(C(=O)[C@@H]2Cc3ccccc3CN2C(=O)[C@@H](NC(=O)[C@H](C)NC)C(C)(C)C)C(COC)c2ccccc2)C[C@H]1C(=O)NC1CCCc2ccccc21)C(C)(C)C` (stereo in doubt) [Example 40, (S)-2-((S)-3,3-Dimethyl-2-((S)-2-(methylamino)propanamido)butanoyl)-N-(2-(((3S,5S)-1-((S)-3,3-dimethyl-2-((S)-2-(methylamino)propanamido)butanoyl)-5-(((R)-1,2,3,4-tetrahydronaphthalen-1-yl)carbamoyl)pyrrolidin-3-yl)amino)-2-oxoethyl)-N-((S)-2-methoxy-1-phenylethyl)-1,2,3,4-tetrahydroisoquinoline-3-carboxamide], the pIC50 is 7.22.
